Reference: PubChem BioAssay AID1845202 (Molecular Pharmacology Branch, DTP, NCI, 2023)

System: DMS 114 tumor spheroids, viability % test/control
Experiment: Anticancer human tumor DMS 114 cell line growth inhibition;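 further: spheroids exposed to compounds for 7 days before read-out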;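 on viability, T/C: luminescence used as a proxy for viable cells; 100% = DMSO vehicle control viability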
Details: spheroids with HUVEC and MSC; for IC50: curve of first compound; for viability, T/C: stronger effect = lower value
Source text: Multicellular complex tumor spheroid response to DNA repair inhibitors in combination with DNA-damaging drugs
This study explores the anticancer activities of DNA-damaging drugs and inhibitors of DNA damage repair, both as single agents and in combinations. Complex tumor spheroids comprised of malignant cells, endothelial cells and mesenchymal stem cells served as an in vitro model for human solid tumors. This model system incorporates physiologically relevant features and patient-derived or established malignant cell lines with clinically relevant genetic alterations from many tumor types. Twenty-six patient-derived or established malignant cell lines were evaluated representing sarcoma, melanoma, small cell lung cancer (SCLC), non-small cell lung cancer (NSCLC), as well as bladder, ovarian and pancreatic cancers. The concentration ranges selected for each drug and investigational agent were based upon clinically achievable concentrations if the clinical Cmax of the agent was known.
Compounds. The drugs and compounds olaparib (NSC753686), talazoparib (NSC767125), berzosertib (NSC777718), elimusertib (NSC800525), nedisertib (NSC802822), VX-984 (NSC792969), AZD-1390 (NSC803789), temozolomide (NSC362856), topotecan (NSC609699), trabectedin (NSC813783), staurosporine (NSC755774), and gemcitabine (NSC613327) were obtained from the National Cancer Institute (NCI) Developmental Therapeutics Program Chemical Repository. The FDA-approved anticancer drug set is available from the Developmental Therapeutics Program at https://dtp.cancer.gov/organization/dscb/obtaining/available_plates.htm. […] The stock solutions were prepared in dimethyl sulfoxide (DMSO, Sigma-Aldrich, St. Louis, MO, cat. D2650) at 400-fold the tested concentration and stored at -70 degrees C. Prior to their use, the stock solutions were diluted in fresh medium and the final DMSO concentration in the assay was 0.25% (v/v). All drugs and investigational agents were tested over a range starting from a high concentration at or near the clinical Cmax and decreasing in half-log increments. If the clinical Cmax for an agent had not been determined, the highest concentration tested was 10 microM.
Cell Lines. The patient-derived cancer cell (PDC) lines: 156681-154-R-J1-PDC, 283228-195-R-J1-PDC, 287954-098-R-J1-PDC, 292921-168-R-J2-PDC, 349418-098-R-PDC, 425362-245-T-J1-PDC, 556581-035-R-J1-PDC, and BL0293-F563-PDC were received from the NCI Patient-Derived Models Repository (PDMR, https://pdmr.cancer.gov). The established cell lines HS-SY-2 (RRID:CVCL_8719), MPNST, and SYO-1 (RRID:CVCL_7146) were obtained from the Sloan Kettering Institute. The alveolar soft parts sarcoma cell line ASPS-1 (RRID:CVCL_S738) was established at the NCI and grown from internal seed stocks. The following established cell lines were purchased from the American Type Culture Collection (ATCC, Manassas, VA): G-401 (ATCC, cat. CRL-1441, RRID:CVCL_0270), SW982 (ATCC, cat. HTB-93, RRID:CVCL_1734), VA-ES-BJ (ATCC, cat. CRL-2138, RRID:CVCL_1785), NCI-H719 (ATCC, cat. CRL-5837, RRID:CVCL_1582), NCI-H196 (ATCC, cat. CRL-5823, RRID:CVCL_1509), NCI-H841 (ATCC, cat. CRL-5845, RRID:CVCL_1595), NCI-H1618 (ATCC, cat. CRL-5879, RRID:CVCL_1480), NCI-H1876 (ATCC, cat. CRL-5902, RRID:CVCL_1503), DMS 114 (ATCC, cat. CRL-2066; RRID:CVCL_1174), NCI-H211 (ATCC, cat. CRL-5824; RRID:CVCL_1529), and SW 1271 (ATCC, cat. CRL-2177, RRID:CVCL_1716). The small cell lung cancer cell line COR-L88 was purchased from Sigma-Aldrich (cat. 92031917-1VL, RRID:CVCL_1141). The non-small cell lung cancer cell lines NCI-H226 (RRID:CVCL_1544) and NCI-H322M (RRID:CVCL_1557) were established at the NCI and grown from internal seed stocks. Pooled donor human umbilical vein endothelial cells (HUVEC, Lonza, cat. CC-2519) and human mesenchymal stem cells (hMSC, Lonza, cat. PT-2501) were purchased from Lonza (Walkersville, MD).
Cell Culture. All cells were maintained in an incubator at 37 degrees C and 5% CO2 with 95% humidity. […]

## Cc1cc(C)c(CNC(=O)c2cc(-c3ccc(CN4CCOCC4)cc3)cc3c2cnn3C2CCCC2)c(=O)[nH]1 + CC[C@@]1(O)C(=O)OCc2c1cc1n(c2=O)Cc2cc3c(CN(C)C)c(O)ccc3nc2-1
Second compound 0.003 µM
  IC50: > 10 µM
Second compound 0.00949 µM
  IC50: > 10 µM
Second compound 0.03 µM
  IC50: < 0.0316 µM
Second compound 0.0949 µM
  IC50: < 0.0316 µM
Second compound 0.3 µM
  IC50: < 0.0316 µM
Second compound 0.003 µM, first compound 0.0316 µM
  viability, T/C: 112%
Second compound 0.003 µM, first compound 0.1 µM
  viability, T/C: 117%
Second compound 0.003 µM, first compound 0.316 µM
  viability, T/C: 108%
Second compound 0.003 µM, first compound 1 µM
  viability, T/C: 106%
Second compound 0.003 µM, first compound 3.16 µM
  viability, T/C: 98.2%
Second compound 0.003 µM, first compound 10 µM
  viability, T/C: 59.6%
Second compound 0.00949 µM, first compound 0.0316 µM
  viability, T/C: 96.2%
Second compound 0.00949 µM, first compound 0.1 µM
  viability, T/C: 105%
Second compound 0.00949 µM, first compound 0.316 µM
  viability, T/C: 95.4%
Second compound 0.00949 µM, first compound 1 µM
  viability, T/C: 97.1%
Second compound 0.00949 µM, first compound 3.16 µM
  viability, T/C: 84.9%
Second compound 0.00949 µM, first compound 10 µM
  viability, T/C: 58.9%
Second compound 0.03 µM, first compound 0.0316 µM
  viability, T/C: 33.3%
Second compound 0.03 µM, first compound 0.1 µM
  viability, T/C: 39.5%
Second compound 0.03 µM, first compound 0.316 µM
  viability, T/C: 28.3%
Second compound 0.03 µM, first compound 1 µM
  viability, T/C: 35.5%
Second compound 0.03 µM, first compound 3.16 µM
  viability, T/C: 32.1%
Second compound 0.03 µM, first compound 10 µM
  viability, T/C: 30.7%
Second compound 0.0949 µM, first compound 0.0316 µM
  viability, T/C: 16%
Second compound 0.0949 µM, first compound 0.1 µM
  viability, T/C: 15.5%
Second compound 0.0949 µM, first compound 0.316 µM
  viability, T/C: 14.8%
Second compound 0.0949 µM, first compound 1 µM
  viability, T/C: 16%
Second compound 0.0949 µM, first compound 3.16 µM
  viability, T/C: 17.2%
Second compound 0.0949 µM, first compound 10 µM
  viability, T/C: 15.5%
Second compound 0.3 µM, first compound 0.0316 µM
  viability, T/C: 9.14%
Second compound 0.3 µM, first compound 0.1 µM
  viability, T/C: 9.67%
Second compound 0.3 µM, first compound 0.316 µM
  viability, T/C: 9.76%
Second compound 0.3 µM, first compound 1 µM
  viability, T/C: 10.1%
Second compound 0.3 µM, first compound 3.16 µM
  viability, T/C: 12.1%
Second compound 0.3 µM, first compound 10 µM
  viability, T/C: 17.6%

## Cc1sc2c(c1C)C(c1ccc(Cl)cc1)=NC(CC(=O)Nc1ccc(O)cc1)c1nnc(C)n1-2 (stereo not given) + CC[C@@]1(O)C(=O)OCc2c1cc1n(c2=O)Cc2cc3c(CN(C)C)c(O)ccc3nc2-1
Second compound 0.003 µM
  IC50: 0.0893 µM
Second compound 0.00949 µM
  IC50: 0.0564 µM
Second compound 0.03 µM
  IC50: < 0.00949 µM
Second compound 0.0949 µM
  IC50: < 0.00949 µM
Second compound 0.3 µM
  IC50: < 0.00949 µM
Second compound 0.003 µM, first compound 0.00949 µM
  viability, T/C: 96.7%
Second compound 0.003 µM, first compound 0.03 µM
  viability, T/C: 97.2%
Second compound 0.003 µM, first compound 0.0949 µM
  viability, T/C: 45.5%
Second compound 0.003 µM, first compound 0.3 µM
  viability, T/C: 18.9%
Second compound 0.003 µM, first compound 0.949 µM
  viability, T/C: 7.67%
Second compound 0.003 µM, first compound 3 µM
  viability, T/C: 4.78%
Second compound 0.00949 µM, first compound 0.00949 µM
  viability, T/C: 85%
Second compound 0.00949 µM, first compound 0.03 µM
  viability, T/C: 67.4%
Second compound 0.00949 µM, first compound 0.0949 µM
  viability, T/C: 35.9%
Second compound 0.00949 µM, first compound 0.3 µM
  viability, T/C: 12.1%
Second compound 0.00949 µM, first compound 0.949 µM
  viability, T/C: 5.26%
Second compound 0.00949 µM, first compound 3 µM
  viability, T/C: 3.47%
Second compound 0.03 µM, first compound 0.00949 µM
  viability, T/C: 24.8%
Second compound 0.03 µM, first compound 0.03 µM
  viability, T/C: 19.4%
Second compound 0.03 µM, first compound 0.0949 µM
  viability, T/C: 13.1%
Second compound 0.03 µM, first compound 0.3 µM
  viability, T/C: 8.01%
Second compound 0.03 µM, first compound 0.949 µM
  viability, T/C: 3.14%
Second compound 0.03 µM, first compound 3 µM
  viability, T/C: 1.45%
Second compound 0.0949 µM, first compound 0.00949 µM
  viability, T/C: 11.7%
Second compound 0.0949 µM, first compound 0.03 µM
  viability, T/C: 9.99%
Second compound 0.0949 µM, first compound 0.0949 µM
  viability, T/C: 5.31%
Second compound 0.0949 µM, first compound 0.3 µM
  viability, T/C: 2.68%
Second compound 0.0949 µM, first compound 0.949 µM
  viability, T/C: 1.52%
Second compound 0.0949 µM, first compound 3 µM
  viability, T/C: 0.93%
Second compound 0.3 µM, first compound 0.00949 µM
  viability, T/C: 5.77%
Second compound 0.3 µM, first compound 0.03 µM
  viability, T/C: 4.7%
Second compound 0.3 µM, first compound 0.0949 µM
  viability, T/C: 3.42%
Second compound 0.3 µM, first compound 0.3 µM
  viability, T/C: 1.6%
Second compound 0.3 µM, first compound 0.949 µM
  viability, T/C: 0.9%
Second compound 0.3 µM, first compound 3 µM
  viability, T/C: 0.73%
